Experimental data reported in patent US8383681B2, “Droxidopa and pharmaceutical composition thereof for the treatment of mood disorders, sleep disorders or attention deficit disorders” (Chelsea Therapeutics, Inc., priority 2008, dated 2013).
“Also recorded” adds a separate entry of the source.

Tests used:
[1] = tested on: male CD-1 mice; assay: murine Forced Swim Test (FST), a mouse model of depression; format: in vivo; conditions: intraperitoneal; for effect on length of time spent immobile / depression, in words: doses per Table 1, ANOVA followed by T-test, versus vehicle; for length of time the mice spent immobile (average time immobile): one hour after dosing, immobility within the last 4 minutes of 6 minutes, mg/kg per Table 1: desipramine 10, entacapone 30, fluoxetine 18, venlafaxine 10, amitriptyline 10, droxidopa 400, carbidopa 20
Description: The effect of droxidopa, alone or in combination with other drugs, in the treatment of depression was evaluated using the murine Forced Swim Test (FST), a mouse model of depression commonly used to evaluate antidepressive drugs. Depression (i.e., “learned helplessness” as evaluated by the FST model) was measured using the method of Porsolt et al., Arch. Int. Pharmacodyn. (1977), 229: 327-336. Briefly, male CD-1 mice weighing 22 g (±2 g) were fasted overnight prior to testing. The mice were randomized into 11 groups of 10 mice each. Mice in each group were treated with the vehicle alone, a drug, or a drug composition as outlined in Table 1 and returned to their respective groups.
In Table 1, the vehicle—2% TWEEN® 80 (i.e., polysorbate 80)—was included in all test compositions. One hour after dosing, the test mice were placed in a 1 liter volume glass beaker (height: 14.5 cm, diameter: 10.5 cm) containing water 6 cm in height at room temperature (22 to 24° C.) for 6 minutes. The duration of animal immobility within the last 4 minutes was then recorded. A mouse was judged to be immobile when it ceased struggling and remained floating in the water making only those movements necessary to keep its head above water. Data were analyzed by ANOVA for significant differences in group means, followed by T-test to distinguish statistically significant groups as appropriate.

[2] = target: T1, MAO-A (Homo sapiens, UniProt P21397); conditions: MAO-A versus MAO-B; cited from earlier work
T1 sequence (P21397 1-527): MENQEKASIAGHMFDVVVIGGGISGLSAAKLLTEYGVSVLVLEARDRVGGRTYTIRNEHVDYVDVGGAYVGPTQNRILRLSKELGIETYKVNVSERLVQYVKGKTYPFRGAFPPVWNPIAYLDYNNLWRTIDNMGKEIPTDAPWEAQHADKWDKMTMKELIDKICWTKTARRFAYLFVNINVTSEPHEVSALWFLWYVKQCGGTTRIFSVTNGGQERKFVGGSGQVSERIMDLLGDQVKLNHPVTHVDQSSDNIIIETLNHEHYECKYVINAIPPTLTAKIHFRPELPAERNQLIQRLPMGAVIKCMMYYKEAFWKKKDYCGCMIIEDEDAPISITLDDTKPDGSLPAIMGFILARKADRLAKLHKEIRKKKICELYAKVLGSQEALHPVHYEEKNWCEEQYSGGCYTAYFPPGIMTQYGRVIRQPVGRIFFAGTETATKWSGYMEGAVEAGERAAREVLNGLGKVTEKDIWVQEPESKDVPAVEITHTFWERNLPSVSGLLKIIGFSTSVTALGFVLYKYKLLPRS

Row | Structure (SMILES) | effect on length of time spent immobile / depression, in words [1] | length of time the mice spent immobile (average time immobile) [1] [s] | selectivity for MAO-A than MAO-B [2]
1 | CN(C)CCC=C1c2ccccc2CCc2ccccc21 [amitriptyline] | significant decrease | 60.0 | 
2 | CNCCCN1c2ccccc2CCc2ccccc21 [desipramine] | did not significantly decrease; also recorded: failed to decrease depression | 136.4 | 
3 | CCN(CC)C(=O)/C(C#N)=C/c1cc(O)c(O)c([N+](=O)[O-])c1 [entacapone, (E)-2-cyano-N,N-diethyl-3-(3,4-dihydroxy-5-nitrophenyl)propenamide] | did not significantly decrease | 129.9 | 
4 | CNCCC(Oc1ccc(C(F)(F)F)cc1)c1ccccc1 (centres unmarked) [fluoxetine] | did not significantly decrease; also recorded: failed to decrease depression | 158.2 | 
5 | O=C(NCCN1CCOCC1)c1ccc(Cl)cc1 [moclobemide] |  |  | approximately three times more selective for MAO-A than MAO-B
6 | COc1ccc(C(CN(C)C)C2(O)CCCCC2)cc1 (centres unmarked) [venlafaxine] | did not significantly decrease; also recorded: failed to decrease depression | 117.5 | 
